This is an account of results in PMC2943414 (Journal of the American Chemical Society, 2010).

This assay deals with flavodoxin (Nitratidesulfovibrio vulgaris, UniProt P00323, W140F). Description: FMN retained on purification. Format: binding. The settings on record: oxidized state; as purified, before FMN removal.
Chain of flavodoxin (P00323 whole entry W140F): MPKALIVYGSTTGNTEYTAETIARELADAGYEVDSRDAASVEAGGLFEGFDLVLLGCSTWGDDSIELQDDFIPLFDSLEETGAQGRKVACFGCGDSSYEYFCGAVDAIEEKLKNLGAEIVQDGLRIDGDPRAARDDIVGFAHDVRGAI

In the case of `Cc1cc2nc3c(=O)[nH]c(=O)nc-3n(C[C@H](O)[C@H](O)[C@H](O)COP(=O)(O)O)c2cc1C` [FMN], the “FMN retained on purification” value was “the two flavodoxin mutants (W60FY98F and W140F) contained the oxidized FMN”.
